How the values were obtained:
[1] = Salt screening by slurry equilibration; assay type: physicochemical
Protocol: About 30 mg of Compound 1 Form A and 0.5 or 1 equivalent of base were added into a solvent in a 2 mL glass vial. […] Obtained mixtures were stirred at 25° C. for at least 48 hours.
Obtained suspensions were filtered through a 0.45 μm nylon membrane filter by centrifugation at 14,000 rpm. After being dried at 25° C. under vacuum for 2 h, solid parts were analyzed by XRPD.

[2] = Stability study for Compound 1 Form A (storage conditions); assay type: physicochemical
[3] = Crystallization from hot saturated solutions by slow cooling; assay type: physicochemical; settings: for Result: slow cooling
Protocol: About 50 mg of Compound 1 Form A was dissolved in the minimal amount of selected solvents at 50° C. Obtained solutions were filtered through a 0.45 μm syringe membrane filter. […] Samples without precipitates at 5° C. were further cooled to −20° C. Precipitates were collected by centrifugation filtration through a 0.45 μm nylon membrane filter at 14,000 rpm. Solid parts (wet cakes) were investigated by XRPD.
Obtained solutions were filtered through a 0.45 μm syringe membrane filter. […] Obtained suspensions were cooled to 5° C. at 0.1° C./min and kept at 5° C. for about 12 h. Precipitates were collected by centrifugation filtration through a 0.45 μm nylon membrane filter at 14,000 rpm. Solid parts (wet cakes) were investigated by XRPD.

[4] = Water sorption and desorption (DVS) of Compound 1 Form B; assay type: physicochemical; settings: for 1st desorp. Weight % change / 1st sorp. Weight % change / 2nd desorp. Weight % change / 2nd sorp. Weight % change: 25° C.
Protocol: Water sorption and desorption behavior of Compound 1 Form B was investigated by DVS at 25° C. with a cycle of 40-0-95-0-40% RH, dm/dt 0.002, min. equilibration time 60 min and maximum equilibration time 360 min XRPD was measured after the DVS test to determine form change.

[5] = Solubility in spray drying solvent system; assay type: physicochemical; settings: 80:20 dichloromethane:methanol, organic solvent or mixture
Description: The stability of the SDI was supported by XRPD and HPLC purity and assay data. The secondary drying parameters were established to ensure adequate SDI stability during drying and that the ICH limits for residual dichloromethane and methanol can be met. Through a feasibility batch and an engineering batch, an SDI manufacturing process is established.

[6] = molecular target: BRAF^V600E (Homo sapiens, UniProt P15056, V600E); test: BRAF V600E degradation in A375 cells; assay type: cell-based; settings: 24 hr
BRAF^V600E, sequence (P15056 whole entry V600E): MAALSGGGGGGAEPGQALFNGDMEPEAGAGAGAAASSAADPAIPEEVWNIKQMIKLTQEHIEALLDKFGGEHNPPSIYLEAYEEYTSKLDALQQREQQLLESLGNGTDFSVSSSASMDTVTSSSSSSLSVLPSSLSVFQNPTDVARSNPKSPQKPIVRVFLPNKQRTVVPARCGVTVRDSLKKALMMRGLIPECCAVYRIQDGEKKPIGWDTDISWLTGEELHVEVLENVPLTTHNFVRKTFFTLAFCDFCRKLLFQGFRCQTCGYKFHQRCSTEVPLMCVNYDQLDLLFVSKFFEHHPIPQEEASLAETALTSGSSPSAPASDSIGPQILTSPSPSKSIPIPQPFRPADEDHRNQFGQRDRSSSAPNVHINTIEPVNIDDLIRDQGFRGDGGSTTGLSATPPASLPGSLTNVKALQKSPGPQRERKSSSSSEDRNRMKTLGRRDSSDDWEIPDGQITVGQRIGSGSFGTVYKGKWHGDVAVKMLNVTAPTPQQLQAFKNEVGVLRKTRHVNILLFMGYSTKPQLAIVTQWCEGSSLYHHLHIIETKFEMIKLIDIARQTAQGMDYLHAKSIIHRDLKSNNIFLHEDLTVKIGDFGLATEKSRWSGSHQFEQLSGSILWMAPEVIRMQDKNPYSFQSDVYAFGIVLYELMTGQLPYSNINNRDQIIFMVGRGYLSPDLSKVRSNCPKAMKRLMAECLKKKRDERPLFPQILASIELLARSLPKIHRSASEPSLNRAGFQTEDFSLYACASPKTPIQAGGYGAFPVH

[7] = 25° C. ± 2° C./60% RH ± 5% RH, 3 M
[8] = 25° C. ± 2° C./60% RH ± 5% RH, 6 M
[9] = 40° C. ± 2° C./75% RH ± 5% RH, 3 M
[10] = 40° C. ± 2° C./75% RH ± 5% RH, 6 M

In the case of `CCN(C)S(=O)(=O)Nc1ccc(F)c(Oc2ccc3ncn([C@H]4COC5(CCN(C(=O)CC6(O)CCN(c7cc8c(cc7F)c(N7CCC(=O)NC7=O)nn8C)CC6)CC5)C4)c(=O)c3c2)c1C#N` [Compound 1 Form A], the “Slurry equilibration result (XRPD)” value ([1]; Ca(OH)2 (0.5 equiv.), Acetone, 5% water) was “Sticky material”, the “Slurry equilibration result (XRPD)” value ([1]; Ca(OH)2 (0.5 equiv.), Acetonitrile, 5% water) was “Sticky material” and the “Slurry equilibration result (XRPD)” value ([1]; Choline (1 equiv.), Acetone) was “Sticky material”. For the same compound, the “Slurry equilibration result (XRPD)” value ([1]; Choline (1 equiv.), Acetonitrile) was “Sticky material”, the “Slurry equilibration result (XRPD)” value ([1]; Choline (1 equiv.), Methanol) was “Clear solution” and the “Slurry equilibration result (XRPD)” value ([1]; Erbumine (1 equiv.), Methanol) was “Few solids”. For the same compound, the “Slurry equilibration result (XRPD)” value ([1]; Free form only, Acetone) was “Form B”, the “Slurry equilibration result (XRPD)” value ([1]; Free form only, Acetonitrile) was “Form B” and the “Slurry equilibration result (XRPD)” value ([1]; Methylglucamine (1 equiv.), Methanol) was “Sticky material”. For the same compound, the “Slurry equilibration result (XRPD)” value ([1]; Mg(OH)2 (0.5 equiv.), Acetone, 5% water) was “Few solids”, the “Slurry equilibration result (XRPD)” value ([1]; Mg(OH)2 (0.5 equiv.), Acetonitrile, 5% water) was “Form B” and the “Slurry equilibration result (XRPD)” value ([1]; NH3 (1 equiv.), Acetone) was “Hazy suspension”. For the same compound, the “Slurry equilibration result (XRPD)” value ([1]; NH3 (1 equiv.), Acetonitrile) was “Form I*”, the “Slurry equilibration result (XRPD)” value ([1]; TRIS (1 equiv.), Methanol) was “Few solids” and the Appearance ([2]; 5 ± 3° C., 6 M) was “white solid”. The “Assay by UPLC (% w/w)” value ([2]; 5 ± 3° C., 6 M) was 92.0% w/w, the “Chiral purity by HPLC (% area)” value ([2]; 5 ± 3° C., 6 M) was 99.2% area and the “Related Substances by UPLC (% area), Total Impurities” value ([2]; 5 ± 3° C., 6 M) was 2.8% area. The “Water Content by KF (% w/w)” value ([2]; 5 ± 3° C., 6 M) was 4.7% w/w, the XRPD ([2]; 5 ± 3° C., 6 M) was “Form A” and the “Stability study outcome (appearance, water content, chiral purity, assay, related substance)” value ([2]; 5 ± 3° C., 25° C./60% RH, 30° C./65% RH, 40° C./75% RH) was “meet the acceptance criteria”. For the same compound, the “Assay by UPLC (% w/w)” value [2, 7] was 93.3% w/w, the “Chiral purity by HPLC (% area)” value [2, 7] was 99.2% area and the “Related Substances, UPLC (% area), Total Impurities” value (“Related Substances, UPLC (% area)” for short) [2, 7] was 2.6% area. The “Water Content by KF (% w/w)” value [2, 7] was 3.6% w/w, the XRPD [2, 7] was “Form A” and the “Assay by UPLC (% w/w)” value [2, 8] was 92.9% w/w. For the same compound, the “Chiral purity by HPLC (% area)” value [2, 8] was 99.2% area, the “Related Substances, UPLC (% area)” value [2, 8] was 2.9% area and the “Water Content by KF (% w/w)” value [2, 8] was 4.2% w/w. For the same compound, the XRPD [2, 8] was “Form A”, the Appearance ([2]; 30 ± 2° C./65 ± 5% RH, 6 M) was “white solid” and the “Assay by UPLC (% w/w)” value ([2]; 30 ± 2° C./65 ± 5% RH, 6 M) was 92.4% w/w. For the same compound, the “Chiral purity by HPLC (% area)” value ([2]; 30 ± 2° C./65 ± 5% RH, 6 M) was 99.2% area, the “Related Substances, UPLC (% area)” value ([2]; 30 ± 2° C./65 ± 5% RH, 6 M) was 3.0% area and the “Water Content by KF (% w/w)” value ([2]; 30 ± 2° C./65 ± 5% RH, 6 M) was 3.8% w/w. For the same compound, the XRPD ([2]; 30 ± 2° C./65 ± 5% RH, 6 M) was “Form A”, the “Assay by UPLC (% w/w)” value [2, 9] was 92.2% w/w and the “Chiral purity by HPLC (% area)” value [2, 9] was 99.2% area. For the same compound, the “Related Substances, UPLC (% area)” value [2, 9] was 2.7% area, the “Water Content by KF (% w/w)” value [2, 9] was 3.9% w/w and the XRPD [2, 9] was “Form A”. For the same compound, the “Assay by UPLC (% w/w)” value [2, 10] was 92.5% w/w, the “Chiral purity by HPLC (% area)” value [2, 10] was 99.2% area and the “Related Substances, UPLC (% area)” value [2, 10] was 3.3% area. The “Water Content by KF (% w/w)” value [2, 10] was 4.5% w/w, the XRPD [2, 10] was “Form A” and the Appearance ([2]; Initial) was “white solid”. For the same compound, the “Assay by UPLC (% w/w)” value ([2]; Initial) was 97.3% w/w, the “Chiral purity by HPLC (% area)” value ([2]; Initial) was 99.2% area and the “Related Substances by UPLC (% area), Total Impurities” value ([2]; Initial) was 2.6% area. The “Water Content by KF (% w/w)” value ([2]; Initial) was 0.59% w/w, the XRPD ([2]; Initial) was “Form A” and the Water content trend ([2]; each stability condition) was “increased overtime”. The XRPD ([3]; slow cooling with Form B seeds, Acetone) was “Form B”, the Result ([3]; Acetone/water (v:v = 1:1)) was “Sticky material” and the Result ([3]; Acetone, placed at −20° C. for 11 days) was “for 11 days: clear solution”. The Result ([3]; Acetonitrile/water (v:v = 1:1), placed at −20° C. for 11 days) was “for 11 days: clear solution”, the Result ([3]; Acetonitrile, placed at −20° C. for 11 days) was “for 11 days: clear solution” and the Result ([3]; DCM) was “Sticky material”. For the same compound, the Result ([3]; Ethanol, placed at −20° C. for 10 days) was “for 10 days: few solids”, the Result ([3]; Ethyl acetate, placed at −20° C. for 11 days) was “for 11 days: clear solution” and the Result ([3]; Methyl ethyl ketone, placed at −20° C. for 11 days) was “for 11 days: clear solution”. The Result ([3]; THF) was “Oil material” and the Result ([3]; THF/water (v:v = 1:1), placed at −20° C. for 11 days) was “for 11 days: clear solution”.

For `CCN(C)S(=O)(=O)Nc1ccc(F)c(Oc2ccc3ncn([C@H]4COC5(CCN(C(=O)CC6(O)CCN(c7cc8c(cc7F)c(N7CCC(=O)NC7=O)nn8C)CC6)CC5)C4)c(=O)c3c2)c1C#N` [Compound 1 Form B], the “1st desorp. Weight % change” value ([4]; 0% RH) was 0.0%, the “1st sorp. Weight % change” value ([4]; 0% RH) was 0.0% and the “2nd desorp. Weight % change” value ([4]; 0% RH) was 0.0%. For the same compound, the “2nd sorp. Weight % change” value ([4]; 0% RH) was 0.0%, the “1st desorp. Weight % change” value ([4]; 10% RH) was 0.1% and the “1st sorp. Weight % change” value ([4]; 10% RH) was 0.1%. For the same compound, the “2nd desorp. Weight % change” value ([4]; 10% RH) was 0.1%, the “2nd sorp. Weight % change” value ([4]; 10% RH) was 0.1% and the “1st desorp. Weight % change” value ([4]; 20% RH) was 0.3%. For the same compound, the “1st sorp. Weight % change” value ([4]; 20% RH) was 0.2%, the “2nd desorp. Weight % change” value ([4]; 20% RH) was 0.3% and the “2nd sorp. Weight % change” value ([4]; 20% RH) was 0.2%. The “1st desorp. Weight % change” value ([4]; 30% RH) was 0.4%, the “1st sorp. Weight % change” value ([4]; 30% RH) was 0.3% and the “2nd desorp. Weight % change” value ([4]; 30% RH) was 0.4%. The “2nd sorp. Weight % change” value ([4]; 30% RH) was 0.3%, the “1st desorp. Weight % change” value ([4]; 40% RH) was 0.5% and the “1st sorp. Weight % change” value ([4]; 40% RH) was 0.4%. For the same compound, the “2nd desorp. Weight % change” value ([4]; 40% RH) was 0.5%, the “2nd sorp. Weight % change” value ([4]; 40% RH) was 0.4% and the “1st sorp. Weight % change” value ([4]; 50% RH) was 0.5%. The “2nd desorp. Weight % change” value ([4]; 50% RH) was 0.8%, the “1st sorp. Weight % change” value ([4]; 60% RH) was 0.6% and the “2nd desorp. Weight % change” value ([4]; 60% RH) was 0.9%. For the same compound, the “1st sorp. Weight % change” value ([4]; 70% RH) was 0.7%, the “2nd desorp. Weight % change” value ([4]; 70% RH) was 1.0% and the “1st sorp. Weight % change” value ([4]; 80% RH) was 0.9%. The “2nd desorp. Weight % change” value ([4]; 80% RH) was 1.2%, the “1st sorp. Weight % change” value ([4]; 90% RH) was 1.2% and the “2nd desorp. Weight % change” value ([4]; 90% RH) was 1.4%. The “1st sorp. Weight % change” value ([4]; 95% RH) was 1.6%, the “2nd desorp. Weight % change” value ([4]; 95% RH) was 1.6% and the “Crystallinity change after water sorption and desorption” value ([4]; DVS 25° C., 40-0-95-0-40% RH cycle) was “no changes in crystallinity”. It also gave a Water uptake ([4]; DVS 25° C., at 95% RH) of 1.6%.

With `CCN(C)S(=O)(=O)Nc1ccc(F)c(Oc2ccc3ncn([C@H]4COC5(CCN(C(=O)CC6(O)CCN(c7cc8c(cc7F)c(N7CCC(=O)NC7=O)nn8C)CC6)CC5)C4)c(=O)c3c2)c1C#N` [Compound 1, (3R)-3-[6-[2-cyano-3-[[ethyl(methyl)sulfamoyl]amino]-6-fluorophenoxy]-4-oxoquinazolin-3-yl]-8-[2-[1-[3-(2,4-dioxo-1,3-diazinan-1-yl)-5-fluoro-1-methylindazol-6-yl]-4-hydroxypiperidin-4-yl]acetyl]-1-oxa-8-azaspiro[4.5]decane] the solubility [5] was > 100 mg/mL, the BRAF protein degraded [6] was 74% and the DC50 [6] was 0.014 µM.

— US20250289827A1, “MORPHIC FORMS OF A MUTANT BRAF DEGRADER AND METHODS OF MANUFACTURE THEREOF” (C4 THERAPEUTICS, INC., priority 2022, published 2025)
